The record followed here is US12139498B1, “Positive allosteric modulators of the muscarinic acetylcholine receptor M4” (Vanderbilt University, priority 2023, dated 2024).

SMILES strings stand for the structures.

The target in this assay is T1, Human M4 (Homo sapiens, UniProt P08173).
T1 sequence (P08173 1-479): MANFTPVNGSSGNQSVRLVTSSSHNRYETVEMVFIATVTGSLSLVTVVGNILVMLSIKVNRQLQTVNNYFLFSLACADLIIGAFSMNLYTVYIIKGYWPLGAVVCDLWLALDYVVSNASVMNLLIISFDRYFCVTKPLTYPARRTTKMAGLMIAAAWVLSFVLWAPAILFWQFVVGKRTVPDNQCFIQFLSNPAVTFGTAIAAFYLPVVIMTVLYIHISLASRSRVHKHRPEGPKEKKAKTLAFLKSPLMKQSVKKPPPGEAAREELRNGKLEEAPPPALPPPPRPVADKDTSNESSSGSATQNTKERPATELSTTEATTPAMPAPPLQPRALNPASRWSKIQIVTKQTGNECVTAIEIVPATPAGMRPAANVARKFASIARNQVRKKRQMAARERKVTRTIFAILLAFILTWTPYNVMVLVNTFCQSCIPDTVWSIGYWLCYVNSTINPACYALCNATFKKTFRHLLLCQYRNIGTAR
The experiment in a line: M4 cell-based functional assay (calcium mobilization). The arrangement: expressed in transfected cells. The method in brief:
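CHO-K1 cells stably co-expressing hM4 and chimeric Gqi5, loaded with Fluo-4-AM (1.15 μM final, 45 min, 37° C). Compound added ~140 s before EC20 then EC80 acetylcholine; calcium flux by kinetic fluorescence (ex 480/em 530 nm), expressed as fold over basal and normalized to maximal ACh response (1 mM).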
For orientation: Calcium flux is commonly read through the fluorescence of an indicator in the cells.

With `Cc1c(N2CCc3nc(C4(F)CC4)sc3C2)nc2nn(C)c(=O)n2c1C` [Compound 70, 7-(2-(1-fluorocyclopropyl)-6,7-dihydrothiazolo[5,4-c]pyridin-5(4H)-yl)-2,5,6-trimethyl-[1,2,4]triazolo[4,3-a]pyrimidin-3(2H)-one], the maximal response (Emax) at 30 µM (% ACh maximum at 30 μM) turned out to be 77%. In addition, the 50% effective concentration (EC50) (CHO-K1 hM4-Gqi5 cells, calcium flux, increase in EC20 acetylcholine response) came out at 4 nM.

By Emax is commonly meant the maximal effect, on the per cent scale that the assay sets. The EC50 is the concentration giving half of the maximal effect.
